Molecular target: T1, recombinant mouse TG2 (mTG2) (Mus musculus, UniProt P21981)
T1 construct: purchased Zedira
T1 sequence (P21981 1-686): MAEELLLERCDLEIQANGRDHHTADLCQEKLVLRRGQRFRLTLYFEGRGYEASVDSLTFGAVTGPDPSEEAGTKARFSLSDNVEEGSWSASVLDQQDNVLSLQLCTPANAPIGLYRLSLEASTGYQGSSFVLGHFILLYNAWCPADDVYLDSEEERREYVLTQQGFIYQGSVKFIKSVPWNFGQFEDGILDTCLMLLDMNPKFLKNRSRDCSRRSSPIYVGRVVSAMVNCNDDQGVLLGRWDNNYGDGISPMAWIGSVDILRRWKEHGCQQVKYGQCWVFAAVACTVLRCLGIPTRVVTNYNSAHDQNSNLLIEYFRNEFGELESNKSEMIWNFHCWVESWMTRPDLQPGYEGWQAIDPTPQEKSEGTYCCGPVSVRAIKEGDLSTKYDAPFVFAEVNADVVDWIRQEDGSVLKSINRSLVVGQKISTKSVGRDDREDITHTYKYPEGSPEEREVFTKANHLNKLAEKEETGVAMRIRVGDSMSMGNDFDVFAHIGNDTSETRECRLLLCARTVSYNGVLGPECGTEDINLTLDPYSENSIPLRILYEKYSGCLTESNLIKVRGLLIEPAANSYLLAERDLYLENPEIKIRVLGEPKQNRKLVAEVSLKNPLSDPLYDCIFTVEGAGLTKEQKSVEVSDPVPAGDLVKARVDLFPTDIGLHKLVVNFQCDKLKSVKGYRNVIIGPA
Test: Inhibition of recombinant Transglutaminase activity (fluorescent substrate), mouse TG2
Format: biochemical
Settings: recombinant mouse TG2, Fig 2A
Procedure: The potency and specificity of TG2 inhibitors was assessed with various recombinant TGs, as previously described. The reaction buffer (50 mM Tris, 100 mM NaCl, 10 mM CaCl2, 5 mM H-Gly-OMe*HCl (glycinemethylestherhydrochloride, Sigma), 5 mM hexadimethinbromide (Sigma), 9.1 mM DTT, pH 7.5) was heated to 37°C in a 96 well plate. Then 50 μM of the TG substrate Abz-NE(CAD-DNP)EQVSPLTLLK-OH (Zedira) was added. 1 μg/ml recombinant TG (human TG1, human (hTG2) / mouse TG2 (mTG2) or human Factor XIII (FXIII); Zedira) were added. The two lyophilized TG2 inhibitors (see Fig 1 for chemical structure) BJJF078 (3,4-Dimethoxy-N-(5-[4-(acryloylamino)piperidine-1-sulfonyl]-naphthalen-1-yl)-benzamide, kindly provided by Dr S. El Alaoui, Covalab, France) and ERW1041E (2-[(3-Bromo-4,5-dihydro-isoxazol-5-ylmethyl)-carbamoyl]-pyrrolidine-1—carboxylic acid quinolin-3-ylmethyl ester, kindly provided by Prof C. Khosla, Stanford University, USA) were dissolved in DMSO (stock solution: 54 mM) and stored at -80°C. These stocks were further diluted and various concentrations of the TG2 inhibitors (0.3 nM to 100 μM), were added to the wells (final DMSO concentration per well: 0.06%). The relative increase in fluorescence emission, correlating with enzymatic activity, was measured over 4 h with a fluorimeter (Excitation: 320nm, emission: 405 nm; Fluostar, GMB).

Row | Structure (SMILES) | IC50 [µM]
1 | O=C(NCC1CC(Br)=NO1)C1CCCN1C(=O)OCc1cnc2ccccc2c1 (centres unmarked) [ERW1041E, 2-[(3-Bromo-4,5-dihydro-isoxazol-5-ylmethyl)-carbamoyl]-pyrrolidine-1—carboxylic acid quinolin-3-ylmethyl ester] | 6.8
2 | C=CC(=O)NC1CCN(S(=O)(=O)c2cccc3c(NC(=O)c4ccc(OC)c(OC)c4)cccc23)CC1 [BJJF078, 3,4-Dimethoxy-N-(5-[4-(acryloylamino)piperidine-1-sulfonyl]-naphthalen-1-yl)-benzamide] | 0.054

Reference: publication PMC5918173, “Characterization of Transglutaminase 2 activity inhibitors in monocytes in vitro and their effect in a mouse model for multiple sclerosis” (PLoS ONE, 2018)
